The values below come from US12391667B2, “N-methyl, n-(6-(methoxy)pyridazin-3-yl) amine derivatives as Autotaxin (ATX) modulators for the treatment of inflammatory airway or fibrotic diseases” (Boehringer Ingelheim International GmbH, priority 2019, dated 2025).

One assay concerns the target Human ATX (Homo sapiens (Human), UniProt Q13822). Put plainly: Assay A: Biochemical ATX Assay. Conditions: 5 nM recombinant ATX, 18:1 LPC substrate, 2 h at room temperature, formation of 18:1 LPA.
The target in the next assay is ATX in human whole blood (Homo sapiens (Human), UniProt Q13822). Nature of the assay: Assay B: Whole-Blood ATX assay. To be noted: 1 h at 37° C., formation of 18:2 LPA. Type of assay: biochemical.
Assay [1] has as its system plasma LPA (ATX inhibition). Put plainly: Assay C: In vivo plasma LPA reduction after oral dosing. To be noted: rats, 5 mg/kg, 8 hours post application, sum of LPA vs baseline. On the procedure: The test substance was solubilized in 0.5% natrosol supplemented with 0.015% Tween 80 for oral application to rats at a dose of 5 mg/kg. Blood samples were collected before compound administration and 8 hours post application on ice using EDTA as coagulation agent. Subsequently, plasma was prepared by centrifugation and stored until analysis at −20° C.
LPAs from plasma samples were extracted by using the procedure described by Scherer et al. (Clinical chemistry 2009, 55, 1218-22). 35 μL of heparinized plasma was mixed with 200 μL 40 mM disodium hydrogen phosphate buffer containing 30 mM citric acid (pH 4) and 1 μM 17:0 LPA (internal standard). Subsequently, 500 μL butanol was added and shaken vigorously for 10 min. Samples were centrifuged afterwards at 4000 rpm, 4° C., for 10 min. 500 μL of the organic upper phase was transferred to a fresh 96-deep-well plate and evaporated with a gentle nitrogen flow of 15 psi for 45 min. The resultant residual was dissolved in 100 μL ethanol prior to LC-MS analysis.
LC-MS Method for the Analytic of In Vivo Samples
A Triple Quad 6500 (ABSciex, Toronto, Canada) was equipped with an Agilent 1290 LC system (Agilent, Santa Clara, CA) a CTC autosampler and an Atlantis 50×2.1-mm, 3-μm HILIC LC column (Waters, Elstree, UK). Eluent A contained 0.2% formic acid and 50 mM ammonium formate in water, whereas eluent B consisted of 0.2% formic acid in acetonitrile. […] At 1.8 min, solvent B was set back to 95% and stayed constant for 0.7 min for re-equilibration of the column. The following LPA species were monitored (DP: declustering potential and CE: collision energy): 16:0 LPA at 409.2/152.8, DP=−150, CE=−28; 18:0 LPA at 437.3/152.8, DP=−60, CE=−28; 18:1 LPA at 435.2/152.8, DP=−40, CE=−28; 18:2 LPA at 433.2/152.8, DP=−150, CE=−28; 20:4 LPA at 457.2/152.8, DP=−100, CE=−29 and 17:0 LPA at 423.5/152.8, DP=−100, CE=−36. LPA depletion in percent was calculated based on the baseline LPA levels before test compound application. The sum of LPA refers to the species 16:0; 18:0; 18:1; 18:2 and 20:4

The next assay concerns LPA levels. To be noted: as disclosed in literature; cited from earlier work.

Method for ATX in human whole blood: 45 μL human whole-blood was supplemented with 5 μL of the test compound, dissolved in phosphate-buffered saline (concentration range 0.12 nM-100 μM). This mixture was incubated for 1 h at 37° C. and stopped by addition of 100 μL 40 mM disodium hydrogen phosphate buffer containing 30 mM citric acid (pH 4) and 1 μM 17:0 LPA (internal standard). LPA was extracted by addition of 500 μL 1-butanol, followed by 10-min centrifugation at 4000 rpm, 4° C. From the resultant organic supernatant, a 200 μL aliquot was transferred into a 96-deep-well plate and transferred to the RapidFire-based MS/MS measurement.
The RapidFire autosampler was coupled to a binary pump (Agilent 1290) and a Triple Quad 6500 (ABSciex, Toronto, Canada). This system was equipped with a 10-μL loop, 5-μL Waters Atlantis HILIC cartridge (Waters, Elstree, UK), 90% acetonitrile containing 10 mM ammonium acetate as eluent A and 40% acetonitrile containing 10 mM ammoniumacetate as eluent B. For details see (Bretschneider et al., SLAS Discovery, 2017, 22, 425-432). The MS was operated in negative mode with a source temperature of 550° C., curtain gas=35, gas 1=65, and gas 2=80. The following transitions and MS parameters (DP: declustering potential and CE: collision energy) for the respective LPAs were determined: 18:2 LPA at 433.2/152.8, DP=−150, CE=−27 and 17:0 LPA at 423.5/152.8, DP=−100.
The formation of 18:2 LPA was monitored and evaluated as ratio to 17:0 LPA.
Method for Human ATX: 5 nM recombinant ATX (Cayman Chemicals) was supplemented to 50 mM Tris buffer (pH 8.0) containing 3 mM KCl, 1 mM CaCl2), 1 mM MgCl2 0.14 mM NaCl, and 0.1% bovine serum albumin. Test compounds were dissolved in DMSO and tested in the range of 0.1 nM to 10 μM. The enzymatic reaction (22.5 μL) was started by addition of 2.5 μL 10 μM 18:1 LPC (Avanti Lipids, Alabaster, AL, USA). After 2-h incubation at room temperature, the reaction was stopped by addition of 20 μL water containing 500 nM 20:4 LPA as internal standard and 100 μL 1-butanol for extracting LPA. Subsequently, the plates were centrifuged at 4000 rpm, 4° C., for 2 min. The resultant upper butanol phase was directly used for injection at a RapidFire system (Agilent).
The RapidFire autosampler was coupled to a binary pump (Agilent 1290) and a Triple Quad 6500 (ABSciex, Toronto, Canada). […] 1 The MS was operated in negative mode with a source temperature of 550° C., curtain gas=35, gas 1=65, and gas 2=80. The following transitions and MS parameters (DP: declustering potential and CE: collision energy) for the respective LPAs were determined: 18:1 LPA at 435.2/152.8, DP=−40, CE=−28 and 20:4 LPA at 457.2/152.8, DP=−100, CE=−27).
The formation of 18:1 LPA was monitored and evaluated as ratio to 20:4 LPA.

In the case of `CC(=O)N(C)C1CCN(c2ccc(C3(Nc4ccc(OCc5ccc(C(F)F)nc5)nn4)CC3)cc2)CC1` [Example 1.4], the 50% inhibitory concentration (IC50) (usually the midpoint of a concentration-inhibition curve) at Human ATX worked out at 5.8 nM; on ATX in human whole blood it was 4.3 nM. In assay [1], the “LPA reduction at 8 h” value was 98.0%.
Regarding `CC(=O)N1CCN(c2ccc(C3(Nc4ccc(OCc5ccc(C(F)(F)F)nc5)nn4)CC3)cc2C)CC1` [Example 1.13], the values for the concentration for half-maximal inhibition (IC50) on Human ATX and on ATX in human whole blood were 3.4 nM and 7.1 nM, respectively.
As to `CC(=O)N1CCN(c2ccc(C3(Nc4ccc(OCc5ccc(C(F)(F)F)nc5)nn4)CC3)c(F)c2)CC1` [Example 1.12], the figures for the IC50 on Human ATX and against ATX in human whole blood were 4.8 nM and 7.7 nM, respectively.
As for `CC(=O)N1CCN(c2ccc(C3(Nc4ccc(OCc5ccc(C(F)(F)F)nc5)nn4)CC3)cn2)CC1` [Example 1.11], the IC50 came to 4.4 nM at Human ATX and 6.9 nM on ATX in human whole blood. In assay [1], the “LPA reduction at 8 h” value is listed as 96.3%.
Consider `CC(=O)N1CCN(c2ccc([C@@H](C)Nc3ccc(OCc4ccc(C(F)(F)F)nc4)nn3)cc2)CC1` [Example 1.2], for which the results for the half-maximal inhibitory concentration (IC50) on Human ATX and at ATX in human whole blood were 3.4 nM and 1.8 nM, respectively. In addition, in assay [1], the “LPA reduction at 8 h” value turned out to be 95.9%.
For the molecule `CCc1nc2c(C)cc(N3CCN(CC(=O)N4CC(O)C4)CC3)cn2c1N(C)c1nc(-c2ccc(F)cc2)c(C#N)s1` [Example 2 in WO2014/139882, reference compound], the “LPA reduction at 8 h” value in assay [1] is 58.1%.
Take `CC(=O)N1CCN(c2ccc([C@@H](CO)Nc3ccc(OCc4ccc(C(F)F)nc4)nn3)cc2)CC1` [Example 1.8]: the values for the IC50 at Human ATX and against ATX in human whole blood were 4.2 nM and 1.3 nM, respectively.
In the same order, the values of `CC(=O)N(C)C1CCN(c2ccc(C3(Nc4ccc(OCc5ccc(C(F)F)nc5)nn4)CC3)cc2)C1` (centres unmarked) [Example 1.7] are 6.7 nM and 7 nM.
In the same order, the values of `CC(=O)N1CCN(c2ccc(C(C)Nc3ccc(OCc4ccc(C(F)(F)F)nc4)nn3)cc2)CC1` (centres unmarked) [Example 1.3] are 2.2 nM and 2 nM.
The matching figures for `CC(=O)N1CCN(c2ccc(C3(Nc4ccc(OCc5ccc(C(F)F)nc5)nn4)CC3)cc2)CC1` [Example 1.5]: 4.2 nM and 4.3 nM.
Regarding `CC(=O)N1CCN(c2ccc(C3(Nc4ccc(OCc5ccc(C(F)(F)F)nc5)nn4)CC3)cc2F)CC1` [Example 1.10], the IC50 turned out to be 2.4 nM on Human ATX and 3.7 nM on ATX in human whole blood.
Take `CC(=O)N1CCN(c2ccc(C3(Nc4ccc(OCc5ccc(C(F)(F)F)nc5)nn4)CC3)cc2)CC1` [Example 1.1, 1-[4-(4-{1-[(6-{[6-(trifluoromethyl)pyridin-3-yl]methoxy}pyridazin-3-yl)amino]cyclopropyl}phenyl)piperazin-1-yl]ethan-1-one]: the figures for the IC50 at Human ATX and at ATX in human whole blood were 2.5 nM and 3.5 nM, respectively. For the same molecule, the “LPA reduction at 8 h” value in assay [1] stood at 97.0%.
For `O=C(NC[C@@H]1[C@H]2CN(C(=O)OCc3cc(C(F)(F)F)cc(C(F)(F)F)c3)C[C@@H]12)c1ccc2[nH]nnc2c1`, the “reduction of LPA levels in vivo” value in the assay with LPA levels was “significantly reduces LPA levels in vivo”.
On to `CC(=O)N1CCN(c2ccc([C@H](C)Nc3ccc(OCc4ccc(C(F)(F)F)nc4)nn3)cc2)CC1` [Example 1.6], for which the IC50 at Human ATX came out at 2.6 nM; against ATX in human whole blood, 7.8 nM.
In the same order, the values of `CC(=O)N1CCN(c2ccc([C@@H](CO)Nc3ccc(OCc4ccc(C(F)(F)F)nc4)nn3)cc2)CC1` [Example 1.9] are 5.3 nM and 5 nM.
